According to US20240293384A1, “METHODS AND COMPOSITIONS FOR TREATMENT OF COVID-19” (priority 2021, published 2024):

Key:
SARS-CoV-2 [1] = assay type: cell-based, SARS-CoV-2 (Seattle strain)
tubulin network = assay: mRNA sequencing and IPA analysis of SARS-CoV-2-infected neurons; assay type: cell-based, human; details: neurons infected with virus for 24 hours, treated vs vehicle (DMSO)
Calu3 cells = assay: RNAseq of infected Calu3 cells, DEG reversal z-score analysis; assay type: cell-based, human; details: overlapping genes with FDR<10%
SARS-CoV-2 [2] = assay type: cell-based

Row | SMILES | SARS-CoV-2 levels determined by qPCR for Spike mRNA (SARS-CoV-2 [1]) | expression of tubulins in mRNAseq (IPA Coronavirus Replication Pathway) (tubulin network) | restoration of gene expression of infected cells to uninfected levels (log 2 fold change z-scores) (Calu3 cells) | viral RNA levels (qPCR, Spike RNA) (SARS-CoV-2 [2])
1 | O=[N+]([O-])c1ccc(Sc2nnc(COc3ccccc3)n2-c2ccccc2)nc1 [MIND4-17, 5-Nitro-2-{[5-(phenoxymethyl)-4-phenyl-4H-1,2,4-triazol-3-yl]thio}pyridine] | dramatic reduction in Spike transcripts | downregulated |  | 
2 | O=[N+]([O-])c1ccc(Sc2nnc(COc3ccccc3)n2-c2ccccc2)c2ncccc12 [MIND4] |  |  | significant restoration back to uninfected state | dramatic reduction in viral RNA levels
